Assay results as given in the supplement of paper PMC10307832.

Tests used:
Experiment in all cases: relative viability (nuclei count vs DMSO), 5 days (fraction); higher = more cells survive
[1] = compound: C=CCc1cccc(/C=N/NC(=O)CN2CCN(Cc3ccccc3)CC2)c1O [PAC-1] + CC1(C)CCC(c2ccc(Cl)cc2)=C(CN2CCN(c3ccc(C(=O)NS(=O)(=O)c4ccc(N[C@H](CCN5CCOCC5)CSc5ccccc5)c(S(=O)(=O)C(F)(F)F)c4)cc3)CC2)C1 [Navitoclax] (partner 0.5 µM)
Summary of the method: (§1)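 Relative viability equals treated-well nuclei counts divided by vehicle-well nuclei counts. Counts came from 4× images of lung cancer cell lines grown in 1536-well plates for 5 days after pin-tool dosing on the day after seeding. Dosing used one drug alone or a fixed anchor-drug dose plus five library-drug doses (not always all listed) in √10 steps, and values are medians of duplicate plates.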

[2] = compound: C=CC(=O)Nc1cc(-n2c(=O)ccc3cnc4ccc(-c5ccc(NS(C)(=O)=O)cc5)cc4c32)ccc1C [BMX-IN-1] + COc1cc2c(Oc3ccc(NC(=O)C4(C(=O)Nc5ccc(F)cc5)CC4)cc3F)ccnc2cc1OCCCN1CCOCC1 [Foretinib] (partner 0.25 µM)
Summary of the method: as §1

[3] = compound: C=CC(=O)N1CCC[C@@H](n2nc(-c3ccc(Oc4ccccc4)cc3)c3c(N)ncnc32)C1 [Ibrutinib] + Nc1nc2[nH]cc(CCc3ccc(C(=O)N[C@@H](CCC(=O)O)C(=O)O)cc3)c2c(=O)[nH]1 [Pemetrexed] (partner 0.2 µM)
Summary of the method: as §1

[4] = compound: C=CCc1cccc(/C=N/NC(=O)CN2CCN(Cc3ccccc3)CC2)c1O [PAC-1] + Cc1nc(NC(=O)N2CCC[C@H]2C(N)=O)sc1-c1ccnc(C(C)(C)C(F)(F)F)c1 [Alpelisib] (partner 2 µM)
Summary of the method: as §1

| Cell Line | relative viability ([1]; first compound 0.02 µM) | relative viability ([1]; first compound 0.06325 µM) | relative viability ([1]; first compound 0.2 µM) | relative viability ([1]; first compound 2 µM) | relative viability ([2]; first compound 0.02 µM) | relative viability ([2]; first compound 0.2 µM) | relative viability ([2]; first compound 0.6325 µM) | relative viability ([2]; first compound 2 µM) | relative viability ([3]; first compound 0.01581 µM) | relative viability ([3]; first compound 0.05 µM) | relative viability ([3]; first compound 0.1581 µM) | relative viability ([3]; first compound 0.5 µM) | relative viability ([4]; first compound 0.02 µM) | relative viability ([4]; first compound 0.06325 µM) | relative viability ([4]; first compound 0.2 µM) | relative viability ([4]; first compound 2 µM) | relative viability ([3]; first compound 0.005 µM) |
| --- | --- | --- | --- | --- | --- | --- | --- | --- | --- | --- | --- | --- | --- | --- | --- | --- | --- |
| NCI-H1355 | 0.866 | 0.961 | 0.965 | 0.962 | 1.1 | 1.15 | 0.921 | 0.977 | 0.944 | 0.987 | 1.06 | 0.951 | 0.861 | 0.809 | 0.753 | 0.822 |  |
| LK-2 | 0.816 | 0.805 | 0.88 | 0.845 | 1.59 | 1.54 | 1.04 | 1.03 | 0.328 | 0.263 | 0.225 | 0.26 | 1.08 | 1.22 | 1.2 | 0.971 | 0.194 |
| NCI-H1650 | 1.18 | 1.15 | 1.22 | 1.04 | 1.05 | 1.46 | 1.2 | 1.17 | 0.308 | 0.348 | 0.42 | 0.287 |  |  |  |  | 0.347 |
| NCI-H838 | 1.08 | 1.12 | 1.08 | 1.21 | 1.3 | 1.25 | 1.24 | 0.982 | 0.236 | 0.246 | 0.265 | 0.292 | 1.07 | 1.01 | 0.962 | 1.04 | 0.255 |
| EMC-BAC-2 | 1.14 | 1.22 | 1.19 | 1.14 | 1.04 | 0.984 | 1.06 | 0.985 | 0.449 | 0.541 |  | 0.714 | 0.72 | 0.801 | 0.737 | 0.67 | 0.527 |
| SW 1573 | 0.825 | 1.03 | 0.825 | 1.03 | 0.953 | 0.947 | 1.02 | 0.337 | 0.917 | 0.968 | 0.88 | 1.25 | 0.646 | 0.82 | 0.571 | 0.771 |  |
| CAL-12T | 1.43 | 1.21 | 1.31 | 1.26 | 1.28 | 1.2 | 1.31 | 1.1 | 1.19 | 1.12 | 1.26 | 1.27 | 1.13 | 1.18 | 1.16 | 1.37 | 1.26 |
| NCI-H2009 | 1.16 | 1.18 | 1.22 | 1.16 | 1.38 | 1.26 | 1.24 | 1.28 | 1.06 | 1.16 | 1.11 | 1.22 | 1.1 | 1.13 | 1.13 | 1.15 | 1.08 |
| HARA | 1.15 | 1.11 | 1.14 | 1.15 | 1.43 | 1.27 | 0.936 | 0.799 | 0.22 | 0.249 | 0.207 | 0.242 | 0.735 | 0.809 | 0.779 | 0.928 | 0.243 |
| HCC-827 | 1.04 | 0.986 | 0.983 | 0.989 | 1.01 | 1.02 | 1.03 | 1.03 | 0.248 | 0.24 | 0.246 | 0.168 | 0.964 | 0.927 | 0.895 | 1 | 0.22 |
| EBC-1 | 0.382 | 0.336 | 0.443 | 0.33 | 0.0974 | 0.114 | 0.144 | 0.101 |  |  |  |  | 0.769 | 0.808 | 0.736 | 0.809 |  |
| NCI-H647 | 1.23 | 1.09 | 1.16 | 1.2 | 1.32 | 1.58 | 1.14 | 1.21 | 0.183 | 0.205 | 0.194 | 0.421 | 0.995 | 1.08 | 1.14 | 0.709 | 0.197 |
| A549 | 1.25 | 1.18 | 1.14 | 1.23 | 1.14 | 0.971 | 1.2 | 0.982 |  |  |  |  | 0.718 | 0.727 | 0.694 | 0.707 |  |
| NCI-H661 |  |  |  |  | 1.16 | 0.961 | 1.11 | 1.02 | 0.927 | 0.89 | 0.902 | 0.8 | 0.581 | 0.56 | 0.671 | 0.687 | 0.868 |
| NCI-H1651 | 0.924 | 1.12 | 1.06 | 1.09 | 1 | 0.907 | 0.909 | 0.773 | 0.661 | 0.572 | 0.479 | 0.558 | 0.917 | 1.12 | 0.848 | 0.867 | 0.436 |
| HCC-78 | 0.719 | 0.748 | 0.699 | 0.646 | 0.626 | 0.544 | 0.587 | 0.545 | 0.84 | 0.892 | 0.879 | 0.93 | 0.308 | 0.373 | 0.368 | 0.303 |  |
| NCI-H2085 | 1.1 | 1.08 | 1.12 | 1.16 | 0.978 | 0.847 | 0.763 | 0.804 | 0.828 | 0.759 | 0.621 | 0.671 | 0.949 | 0.944 | 0.921 | 0.916 | 0.878 |
